Measurements reported in patent publication US12459951B2, “Compounds that interact with RAS superfamily proteins for treatment of cancers, inflammatory diseases, rasopathies, and fibrotic disease” (SHY Therapeutics, LLC, priority 2022, dated 2025).

Legend:
[1] = system: Smad2/Smad3 phosphorylation; test: Phospho-Smad2/3 Inhibition Assay (western blot), Panc-1; type: cell-based, human; settings: at 10 μM, Panc-1 pancreatic cancer cell line; starred symbols = activation
Summary of the method: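 Panc-1 cells (KRas G12D), starved overnight in 0.5% FBS, treated 3 h at 37° C with compound at 10 μM final (0.3% DMSO) or serial dilutions for IC50, then stimulated with 10 ng/ml TGF-b1 for 1 h. Phospho-Smad2 (Ser465/467) and phospho-Smad3 (Ser423/425) detected by western blot.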

[2] = system: KRas G12C mutant; test: Ras GTP Binding Domain Inhibition Assay (Ras Superfamily Assay); settings: 20 μM compound
Summary of the method: (§1)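 Ni-plate capture of His-tagged protein (10-30 μg/mL, o/n 4° C); cpd 20 μM or dilution series, 1% DMSO, 3 h RT ± Sos 556-1049 last h; 100 nM Cy-labelled GTP 45 min RT; 3× wash; fluorescence read.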

[3] = system: KRas Q61H mutant; test: as above; settings: 20 μM compound
Summary of the method: as §1

[4] = molecular target: T1, Rho-A (Homo sapiens, UniProt P61586); test: as above; settings: read-out: Rho-A: % inh..
T1 construct: made in house
Summary of the method: as §1

T1 sequence (P61586 whole entry): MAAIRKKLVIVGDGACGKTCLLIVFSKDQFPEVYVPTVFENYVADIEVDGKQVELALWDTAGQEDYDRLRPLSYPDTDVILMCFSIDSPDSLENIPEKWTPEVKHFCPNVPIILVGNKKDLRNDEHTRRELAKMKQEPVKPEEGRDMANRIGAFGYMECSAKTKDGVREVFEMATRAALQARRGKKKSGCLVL

With `COCCO[C@H]1C[C@H](Nc2nc(-c3nccn3C)nn3cc(-c4ccn(C(C)C)n4)c(C)c23)C1` [Compound 92, 6-(1-Isopropyl-1H-pyrazol-3-yl)-N-((1r,3r)-3-(2-methoxyethoxy)cyclobutyl)-5-methyl-2-(1-methyl-1H-imidazol-2-yl)pyrrolo[2,1-f][1,2,4]triazin-4-amine] the “% inh of Smad2/3 phosphorylation in Panc-1” value [1] was “A* (A* = 1-25% activation)”, the “KRas G12C mutant + SOS: % inh.” value ([2]; with SOS) was 0 (0 = 0% inhibition) and the “KRas G12C mutant: % inh.” value ([2]; without SOS) was 0 (0 = 0% inhibition). The “KRas Q61H mutant + SOS: % inh.” value ([3]; with SOS) was “A (A = 1-25% inhibition)”, the “KRas Q61H mutant: % inh.” value ([3]; without SOS) was 0 (0 = 0% inhibition) and the inhibition at 20 µM [4] was 1 to 25%.
